Measured values: patent publication US20170121315A1, “HETEROBICYCLICALLY SUBSTITUTED 4-OXOBUTANE ACID DERIVATIVES AND USE THEREOF” (priority 2014, published 2017)

target: T1, human macrophage elastase (HME/hMMP-12) (Homo sapiens, UniProt P39900); experiment: In vitro HME inhibition test (standard or high-sensitivity); format: biochemical; details: in some cases mean values, rounded to two significant figures
T1 construct: purchased R&D Systems 917-MP
Description: The potency of the compounds according to the invention with respect to HME (MMP-12) is determined in an in vitro inhibition test. The HME-mediated amidolytic cleavage of a suitable peptide substrate leads to an increase in fluorescent light therein. The signal intensity of the fluorescent light is directly proportional to the enzyme activity. The active concentration of a test compound at which half the enzyme is inhibited (50% signal intensity of the fluorescent light) is reported as the IC50 value.
In a 384 hole microtiter plate, in a total test volume of 41 μl, the test buffer (0.1 M HEPES pH 7.4, 0.15 M NaCl, 0.03 M CaCl2, 0.004 mM ZnCl2, 0.02 M EDTA, 0.005% Brij®), the enzyme (0.5 nM HME; R&D Systems, 917-MP, autocatalytic activation according to the manufacturer's instructions) and the intramolecularly quenched substrate [5 μM Mca-Pro-Leu-Gly-Leu-Glu-Glu-Ala-Dap(Dnp)-NH2; Bachem, M-2670] are incubated in the absence and presence of the test substance (as a solution in DMSO) at 37° C. for two hours. The fluorescence intensity of the test mixtures is measured (excitation […], emission 393 nm). The IC50 values are ascertained by plotting the fluorescent light intensity against the active ingredient concentration.
In this case, an enzyme concentration ten times lower is used (final concentration, e.g. 0.05 nM) in order to achieve an increased test sensitivity. The incubation period chosen for the test is correspondingly longer (e.g. 16 hours).

T1 sequence (P39900 106-470): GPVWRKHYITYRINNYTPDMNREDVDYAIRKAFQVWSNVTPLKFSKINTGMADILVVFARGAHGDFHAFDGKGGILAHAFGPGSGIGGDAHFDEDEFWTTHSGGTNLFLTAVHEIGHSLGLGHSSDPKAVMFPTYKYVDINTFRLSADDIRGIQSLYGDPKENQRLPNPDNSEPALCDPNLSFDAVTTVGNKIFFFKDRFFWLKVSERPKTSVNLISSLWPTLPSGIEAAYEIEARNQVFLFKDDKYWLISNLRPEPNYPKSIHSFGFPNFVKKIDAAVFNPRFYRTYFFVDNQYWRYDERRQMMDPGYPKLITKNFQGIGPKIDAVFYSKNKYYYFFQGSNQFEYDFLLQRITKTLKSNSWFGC

Compared with `CCCCCCOc1ccc2c(C(=O)CC(CCn3nnc4ccccc4c3=O)C(=O)O)coc2c1` (racemic) [Example 98, (+/−)-4-[6-(Hexyloxy)-1-benzofur-3-yl]-4-oxo-2-[2-(4-oxo-1,2,3-benzotriazin-3(4H)-yl)ethyl]butanoic acid], `CCCCCCOc1ccc2cc(C(=O)CC(CCn3nnc4ccccc4c3=O)C(=O)O)oc2c1` (racemic) [Example 64, (+/−)-4-[6-(Hexyloxy)-1-benzofur-2-yl]-4-oxo-2-[2-(4-oxo-1,2,3-benzotriazin-3(4H)-yl)ethyl]butanoic acid] is 7.2-fold higher in IC50: 0.4 nM for the first, 2.9 nM for the second. The first is the more potent here.

First: CCOc1ccc2cc(C(=O)CC(CCn3nnc4ccccc4c3=O)C(=O)O)sc2c1 (racemic) [Example 127, (+/−)-4-(6-Ethoxy-1-benzothiophen-2-yl)-4-oxo-2-[2-(4-oxo-1,2,3-benzotriazin-3(4H)-yl)ethyl]butanoic acid]
Second: CCCOc1ccc2cc(C(=O)CC(CCn3nnc4ccccc4c3=O)C(=O)O)sc2c1 (racemic) [Example 116, (+/−)-4-Oxo-2-[2-(4-oxo-1,2,3-benzotriazin-3(4H)-yl)ethyl]-4-(6-propoxy-1-benzothiophen-2-yl)butanoic acid]
The IC50 of the first is 1.5-fold lower: 2.8 nM for the first, 4.2 nM for the second. The first is the more potent here.

Compared with `CC(C)CCCOc1ccc2oc(C(=O)CC(CCn3nnc4ccccc4c3=O)C(=O)O)cc2c1` (racemic) [Example 40, (+/−)-4-{5-[(4-Methylpentyl)oxy]-1-benzofur-2-yl}-4-oxo-2-[2-(4-oxo-1,2,3-benzotriazin-3(4H)-yl)ethyl]butanoic acid], `CCCOc1ccc2cc(C(=O)CC(CCn3nnc4ccccc4c3=O)C(=O)O)oc2c1` (single isomer, unassigned) [Example 59, 4-Oxo-2-[2-(4-oxo-1,2,3-benzotriazin-3(4H)-yl)ethyl]-4-(6-propoxy-1-benzofur-2-yl)butanoic acid] is 210-fold higher in IC50: 4.6 nM for the first, 980 nM for the second.

`Cc1c(COc2ccc3oc(C(=O)CC(CCn4nnc5ccccc5c4=O)C(=O)O)cc3c2)cccc1C(F)(F)F` (racemic) [Example 48, (+/−)-4-(5-{[2-Methyl-3-(trifluoromethyl)benzyl]oxy}-1-benzofur-2-yl)-4-oxo-2-[2-(4-oxo-1,2,3-benzotriazin-3(4H)-yl)ethyl]butanoic acid] and `O=C(CC(CCn1nnc2ccccc2c1=O)C(=O)O)c1cc2cc(OCCCc3ccc(C(F)(F)F)cc3)ccc2o1` (racemic) [Example 42, (+/−)-4-Oxo-2-[2-(4-oxo-1,2,3-benzotriazin-3(4H)-yl)ethyl]-4-(5-{3-[4-(trifluoromethyl)phenyl]propoxy}-1-benzofur-2-yl)butanoic acid] are within 1.5-fold of each other in IC50: 4 nM for the first, 3.2 nM for the second.

Going from `O=C(CC(CCn1nnc2ccc(C(F)(F)F)cc2c1=O)C(=O)O)c1cc2ccc(OCC3CC3)cc2s1` (single isomer, unassigned; enantiomer 1) [Example 129, 4-[6-(Cyclopropylmethoxy)-1-benzothiophen-2-yl]-4-oxo-2-{2-[4-oxo-6-(trifluoromethyl)-1,2,3-benzotriazin-3(4H)-yl]ethyl}butanoic acid (enantiomer 1)] to `O=C(CC(CCn1nnc2ccccc2c1=O)C(=O)O)c1cc2ccc(OCC3CCC3)cc2s1` (racemic) [Example 121, (+/−)-4-[6-(Cyclobutylmethoxy)-1-benzothiophen-2-yl]-4-oxo-2-[2-(4-oxo-1,2,3-benzotriazin-3(4H)-yl)ethyl]butanoic acid], the IC50 falls from 13 nM to 3.1 nM (4.2-fold).

First: O=C(CC(CCn1nnc2ccccc2c1=O)C(=O)O)c1coc2cc(OCCC3CCCCC3)ccc12 (racemic) [Example 76, (+/−)-4-[6-(2-Cyclohexylethoxy)-1-benzofur-3-yl]-4-oxo-2-[2-(4-oxo-1,2,3-benzotriazin-3(4H)-yl)ethyl]butanoic acid]
Second: O=C(CC(CCn1nnc2ccccc2c1=O)C(=O)O)c1coc2cc(OCC3CCCCC3)ccc12 (single isomer, unassigned; (-)) [Example 83, (−)-4-[6-(Cyclohexylmethoxy)-1-benzofur-3-yl]-4-oxo-2-[2-(4-oxo-1,2,3-benzotriazin-3(4H)-yl)ethyl]butanoic acid]
The IC50 of the first is 2.1-fold lower: 0.66 nM for the first, 1.4 nM for the second.

First: O=C(CC(CCn1nnc2ccccc2c1=O)C(=O)O)c1noc2cc(OCc3cccc(Cl)c3)ccc12 (racemic) [Example 146, (+/−)-4-{6-[(3-Chlorobenzyl)oxy]-1,2-benzoxazol-3-yl}-4-oxo-2-[2-(4-oxo-1,2,3-benzotriazin-3(4H)-yl)ethyl]butanoic acid]
Second: O=C(CC(CCn1nnc2ccccc2c1=O)C(=O)O)c1cc2cc(OCc3ccc(Cl)c(Cl)c3)ccc2o1 (single isomer, unassigned; (+)) [Example 27, (+)-4-{5-[(3,4-Dichlorobenzyl)oxy]-1-benzofur-2-yl}-4-oxo-2-[2-(4-oxo-1,2,3-benzotriazin-3(4H)-yl)ethyl]butanoic acid]
The IC50 of the first is 5.8-fold higher: 1.1 nM for the first, 0.19 nM for the second. The second is the more potent here.

First: CC(C)COc1ccc2c(C(=O)CC(CCn3nnc4ccccc4c3=O)C(=O)O)coc2c1 (racemic) [Example 104, (+/−)-4-(6-Isobutoxy-1-benzofur-3-yl)-4-oxo-2-[2-(4-oxo-1,2,3-benzotriazin-3(4H)-yl)ethyl]butanoic acid]
Second: CCCCCCOc1ccc2c(C(=O)CC(CCn3nnc4ccccc4c3=O)C(=O)O)coc2c1 (single isomer, unassigned; (-)) [Example 99, (−)-4-[6-(Hexyloxy)-1-benzofur-3-yl]-4-oxo-2-[2-(4-oxo-1,2,3-benzotriazin-3(4H)-yl)ethyl]butanoic acid]
The IC50 of the first is 91-fold lower: 1.1 nM for the first, 100 nM for the second. The first is the more potent here.

Going from `O=C(CC(CCn1nnc2ccccc2c1=O)C(=O)O)c1cc2cc(OCc3ccncc3)ccc2o1` (racemic) [Example 47, (+/−)-4-Oxo-2-[2-(4-oxo-1,2,3-benzotriazin-3(4H)-yl)ethyl]-4-[5-(pyridin-4-ylmethoxy)-1-benzofur-2-yl]butanoic acid] to `O=C(CC(CCn1nnc2ccccc2c1=O)C(=O)O)c1cc2ccc(OCc3ccncc3)cc2s1` (racemic) [Example 123, (+/−)-4-Oxo-2-[2-(4-oxo-1,2,3-benzotriazin-3(4H)-yl)ethyl]-4-[6-(pyridin-4-ylmethoxy)-1-benzothiophen-2-yl]butanoic acid], the IC50 rises from 0.94 nM to 2.7 nM (2.9-fold). The first is the more potent here.

Compared with `O=C(CC(CCn1nnc2ccccc2c1=O)C(=O)O)c1coc2cc(OCc3ccccc3)ccc12` (racemic) [Example 84, (+/−)-4-[6-(Benzyloxy)-1-benzofur-3-yl]-4-oxo-2-[2-(4-oxo-1,2,3-benzotriazin-3(4H)-yl)ethyl]butanoic acid], `CC(C)COc1ccc2c(C(=O)CC(CCn3nnc4ccccc4c3=O)C(=O)O)coc2c1` (single isomer, unassigned; (-)) [Example 106, (−)-4-(6-Isobutoxy-1-benzofur-3-yl)-4-oxo-2-[2-(4-oxo-1,2,3-benzotriazin-3(4H)-yl)ethyl]butanoic acid] is 7.8-fold higher in IC50: 4 nM for the first, 31 nM for the second. The first is the more potent here.

Compared with `NC(=O)c1ccc(COc2ccc3oc(C(=O)CC(CCn4nnc5ccccc5c4=O)C(=O)O)cc3c2)cc1` (racemic) [Example 35, (+/−)-4-{5-[(4-Carbamoylbenzyl)oxy]-1-benzofur-2-yl}-4-oxo-2-[2-(4-oxo-1,2,3-benzotriazin-3(4H)-yl)ethyl]butanoic acid], `O=C(CC(CCn1nnc2ccccc2c1=O)C(=O)O)c1cc2ccc(OCC3CCO3)cc2s1` (racemic) [Example 119, (+/−)-4-{6-[Oxetan-2-ylmethoxy]-1-benzothiophen-2-yl}-4-oxo-2-[2-(4-oxo-1-benzotriazin-3(4H)-yl)ethyl]butanoic acid] is 1.9-fold higher in IC50: 2 nM for the first, 3.7 nM for the second.

Going from `O=C(CC(CCn1nnc2ccccc2c1=O)C(=O)O)c1coc2cc(OCC3CCCC3)ccc12` (racemic) [Example 78, (+/−)-4-[6-(Cyclopentylmethoxy)-1-benzofur-3-yl]-4-oxo-2-[2-(4-oxo-1,2,3-benzotriazin-3(4H)-yl)ethyl]butanoic acid] to `O=C(CC(CCn1nnc2ccccc2c1=O)C(=O)O)c1coc2cc(OCC3CCOCC3)ccc12` (single isomer, unassigned; (-)) [Example 97, (−)-4-Oxo-2-[2-(4-oxo-1,2,3-benzotriazin-3(4H)-yl)ethyl]-4-[6-(tetrahydro-2H-pyran-4-ylmethoxy)-1-benzofur-3-yl]butanoic acid], the IC50 rises from 2 nM to 25 nM (12-fold).

Compared with `O=C(CC(CCn1nnc2ccccc2c1=O)C(=O)O)c1noc2cc(OCCC3CCCC3)ccc12` (racemic) [Example 151, (+/−)-4-[6-(2-Cyclopentylethoxy)-1,2-benzoxazol-3-yl]-4-oxo-2-[2-(4-oxo-1,2,3-benzotriazin-3(4H)-yl)ethyl]butanoic acid], `O=C(CC(CCn1nnc2ccccc2c1=O)C(=O)O)c1coc2cc(OCC3CCOCC3)ccc12` (racemic) [Example 95, (+/−)-4-Oxo-2-[2-(4-oxo-1,2,3-benzotriazin-3(4H)-yl)ethyl]-4-[6-(tetrahydro-2H-pyran-4-ylmethoxy)-1-benzofur-3-yl]butanoic acid] is 2.2-fold higher in IC50: 0.27 nM for the first, 0.6 nM for the second.

Work on `O=C(CC(CCn1nnc2ccccc2c1=O)C(=O)O)c1cc2ccc(OCC3CCCO3)cc2s1` (racemic) [Example 117, (+/−)-4-Oxo-2-[2-(4-oxo-1,2,3-benzotriazin-3(4H)-yl)ethyl]-4-{6-[tetrahydrofuran-2-ylmethoxy]-1-benzothiophen-2-yl}butanoic acid] yielded an IC50 of 5.9 nM.
